Columns and labels:
[1] = cell toxicity CC50; format: cell-based; conditions: human; Hep-G2 cells; mean of at least two experiments; read-out: Cell Cytotoxicity CC50
[2] = system: RSV (RSV A2 ECACC, 0709161v); assay: RSV plaque reduction assay; format: cell-based, respiratory syncytial virus; conditions: human respiratory syncytial virus, HepG2, read-out: RSV A2 Plaque EC50, RSV A2 in Hep-G2 cells; mean of at least two experiments unless noted (n = 1)
Method in brief: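 Hep-G2 monolayers infected with 100 PFU/well RSV A2 premixed with eight serial compound dilutions (2 h, 37° C.), then kept 2 days under CMC overlay with compound in DMEM/2% FBS. Plaques immunostained (HRP/TrueBlue) and counted; % infection versus virus control gives EC50, mean of at least two experiments, rounded.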

Compound | CC50 [1] [nM] | EC50 [2] [nM]
C[C@@H]1CCn2nc(C3CCN(S(C)(=O)=O)CC3)c(C(=O)N[C@H]3N=C(c4ccccc4)c4cccc(F)c4NC3=O)c2O1 [Example 161, (5R)-N-[(3S)-9-fluoro-2-oxo-5-phenyl-1,3-dihydro-1,4-benzodiazepin-3-yl]-5-methyl-2-(1-methylsulfonylpiperi-din-4-yl)-6,7-dihydro-5H-pyrazolo[5,1-b][1,3]oxazine-3-carboxamide] | > 25000 | 54
O=C(N[C@H]1N=C(c2ccccc2)c2cccc(F)c2NC1=O)c1c(-c2ccccc2F)nn2c1SCCC2 [Example 35, N-[(3S)-9-Fluoro-2-oxo-5-phenyl-2,3-dihydro-1H-1,4-benzodiazepin-3-yl]-2-(2-fluorophenyl)-5H,6H,7H-pyrazolo[3,2-b][1,3]thiazine-3-carboxamide] | > 25000 | 117
C[C@@H]1CCn2nc(-c3ccc(S(=O)(=O)N(C)C)cc3F)c(C(=O)N[C@H]3N=C(c4ccccc4)c4cccc(F)c4NC3=O)c2O1 [Example 200, (5R)-2-[4-(Dimethylsulfamoyl)-2-fluorophenyl]-N-[(3S)-9-fluoro-2-oxo-5-phenyl-1,3-dihydro-1,4-benzodiazepin-3-yl]-5-methyl-6,7-dihydro-5H-pyrazolo[5,1-b][1,3]oxazine-3-carboxamide] | > 25000 | 1
O=C(N[C@H]1N=C(c2ccccc2)c2cccc(F)c2NC1=O)c1c(-c2ccccc2F)nn2c1OCC(CO)C2 (single isomer, unassigned) [Example 110-1, (6R*)-N-[(3S)-9-fluoro-2-oxo-5-phenyl-1,3-dihydro-1,4-benzodiazepin-3-yl]-2-(2-fluorophenyl)-6-(hydroxymethyl)-6,7-dihydro-5H-pyrazolo[5,1-b][1,3]oxazine-3-carboxamide] | > 25000 | 42
C[C@@H]1CCn2nc(-c3ccc(S(C)(=O)=O)cc3F)c(C(=O)N[C@H]3N=C(c4ccccc4)c4ccccc4NC3=O)c2O1 [Example 141, (5R)-2-(2-Fluoro-4-methylsulfonylphenyl)-5-methyl-N-[(3S)-2-oxo-5-phenyl-1,3-dihydro-1,4-benzodiazepin-3-yl]-6,7-dihydro-5H-pyrazolo[5,1-b][1,3]oxazine-3-carboxamide] | > 25000 | 20
O=C(N[C@H]1N=C(c2ccccc2)c2cccc(F)c2NC1=O)c1c(-c2c(F)cccc2F)nn2c1OC(CO)CC2 (single isomer, unassigned) [Example 189-1, (5R*)-2-(2,6-Difluorophenyl)-N-[(3S)-9-fluoro-2-oxo-5-phenyl-1,3-dihydro-1,4-benzodiazepin-3-yl]-5-(hydroxymethyl)-6,7-dihydro-5H-pyrazolo[5,1-b][1,3]oxazine-3-carboxamide] | > 25000 | 41
CCc1ccc(-c2nn3c(c2C(=O)N[C@H]2N=C(c4ccccc4)c4ccccc4NC2=O)O[C@@H](C)CC3)cn1 [Example 132, (5S)-2-(6-Ethylpyridin-3-yl)-5-methyl-N-[(3S)-2-oxo-5-phenyl-1,3-dihydro-1,4-benzodiazepin-3-yl]-6,7-dihydro-5H-pyrazolo[5,1-b][1,3]oxazine-3-carboxamide] | > 25000 | 72
C[C@H]1CCn2nc(-c3ccccc3F)c(C(=O)N[C@H]3N=C(c4ccccc4)c4ccccc4NC3=O)c2O1 [Example 26, (5S)-2-(2-Fluorophenyl)-5-methyl-N-[(3S)-2-oxo-5-phenyl-1,3-dihydro-1,4-benzodiazepin-3-yl]-6,7-dihydro-5H-pyrazolo[5,1-b][1,3]oxazine-3-carboxamide] | > 25000 | 43
C[C@@H]1CCn2nc(-c3cnn(C4COC4)c3)c(C(=O)N[C@H]3N=C(c4ccccc4)c4cccc(F)c4NC3=O)c2O1 [Example 116, (5R)-N-[(3S)-9-fluoro-2-oxo-5-phenyl-1,3-dihydro-1,4-benzodiazepin-3-yl]-5-methyl-2-[1-(oxetan-3-yl)pyrazol-4-yl]-6,7-dihydro-5H-pyrazolo[5,1-b][1,3]oxazine-3-carboxamide] | > 25000 | 127
C[C@H]1CCn2nc(-c3ccc(N4C[C@H]5C[C@@H]4CO5)nc3)c(C(=O)N[C@H]3N=C(c4ccccc4)c4cccc(F)c4NC3=O)c2O1 [Example 94, (5S)-5-Methyl-N-[(3S)-9-fluoro-2-oxo-5-phenyl-1,3-dihydro-1,4-benzodiazepin-3-yl]-2-[6-[(1R,4R)-2-oxa-5-azabicyclo[2.2.1]heptan-5-yl]pyridin-3-yl]-6,7-dihydro-5H-pyrazolo[5,1-b][1,3]oxazine-3-carboxamide] | > 25000 | 44
O=C(N[C@H]1N=C(c2ccccc2)c2ccccc2NC1=O)c1nn2c(c1-c1ccccc1F)OCCC2 [Example 36, 3-(2-Fluorophenyl)-N-[(3S)-2-oxo-5-phenyl-1,3-dihydro-1,4-benzodiazepin-3-yl]-6,7-dihydro-5H-pyrazolo[5,1-b][1,3]oxazine-2-carboxamide] | > 25000 | 444
CC(O)Cc1ccc(-c2nn3c(c2C(=O)N[C@H]2N=C(c4ccccc4)c4ccccc4NC2=O)O[C@H](C)CC3)cn1 (stereo partly drawn) [Example 50, (5R)-2-[6-(2-Hydroxypropyl)pyridin-3-yl]-5-methyl-N-[(3S)-2-oxo-5-phenyl-1,3-dihydro-1,4-benzodiazepin-3-yl]-6,7-dihydro-5H-pyrazolo[5,1-b][1,3]oxazine-3-carboxamide] | > 25000 | 429
C[C@@H]1CCn2nc(-c3ccc(S(C)(=O)=O)cc3F)c(C(=O)N[C@H]3N=C(c4ccccc4)c4cccc(F)c4NC3=O)c2O1 [Example 137, (5R)-2-(2-Fluoro-4-methylsulfonylphenyl)-N-[(3S)-9-fluoro-2-oxo-5-penyl-1,3-dihydro-1,4-benzodiazepin-3-yl]-5-methyl-6,7-dihydro-5H-pyrazolo[5,1-b][1,3]oxazine-3-carboxamide] | > 25000 | 15
CCc1ccc(-c2nn3c(c2C(=O)N[C@H]2N=C(c4ccccc4)c4cccc(F)c4NC2=O)O[C@@H](C)CC3)cn1 [Example 127, (5S)-2-(6-Ethylpyridin-3-yl)-N-[(3S)-9-fluoro-2-oxo-5-phenyl-1,3-dihydro-1,4-benzodiazepin-3-yl]-5-methyl-6,7-dihydro-5H-pyrazolo[5,1-b][1,3]oxazine-3-carboxamide] | > 25000 | 41
CC(C)C1COc2c(C(=O)N[C@H]3N=C(c4ccccc4)c4cccc(F)c4NC3=O)c(-c3ccccc3F)nn2C1 (stereo partly drawn) [Example 12, N-[(3S)-9-Fluoro-2-oxo-5-phenyl-2,3-dihydro-1H-1,4-benzodiazepin-3-yl]-2-(2-flurophenyl)-6-(propan-2-yl)-5H,6H,7H-pyrazolo[3,2-b][1,3]oxazine-3-carboxamide] | > 25000 | 39
COc1cccc(F)c1-c1nn2c(c1C(=O)N[C@H]1N=C(c3ccccc3)c3cccc(F)c3NC1=O)OCCC2 [Example 139, 2-(2-Fluoro-6-methoxyphenyl)-N-[(3S)-9-fluoro-2-oxo-5-phenyl-1,3-dihydro-1,4-benzodiazepin-3-yl]-6,7-dihydro-5H-pyrazolo[5,1-b][1,3]oxazine-3-carboxamide] | > 25000 | 66
CCn1cc(-c2nn3c(c2C(=O)N[C@H]2N=C(c4ccccc4)c4cccc(F)c4NC2=O)O[C@@H](C)CC3)cn1 [Example 158, (5S)-2-(1-Ethylpyrazol-4-yl)-N-[(3S)-9-fluoro-2-oxo-5-phenyl-1,3-dihydro-1,4-benzodiazepin-3-yl]-5-methyl-6,7-dihydro-5H-pyrazolo[5,1-b][1,3]oxazine-3-carboxamide] | > 25000 | 48
O=C(N[C@H]1N=C(c2ccccc2)c2cccc(F)c2NC1=O)c1c(-c2c(F)cccc2F)nn2c1OCC(CO)C2 (mixture of isomers) [Example 129, 2-(2,6-Difluorophenyl)-N-[(3S)-9-fluoro-2-oxo-5-phenyl-1,3-dihydro-1,4-benzodiazepin-3-yl]-6-(hydroxymethyl)-6,7-dihydro-5H-pyrazolo[5,1-b][1,3]oxazine-3-carboxamide] | > 25000 | 37
CCN(CC)CC1COc2c(C(=O)N[C@H]3N=C(c4ccccc4)c4cccc(F)c4NC3=O)c(-c3ccccc3F)nn2C1 (stereo partly drawn) [Example 164, 6-(Diethylaminomethyl)-N-[(3S)-9-fluoro-2-oxo-5-phenyl-1,3-dihydro-1,4-benzodiazepin-3-yl]-2-(2-fluorophenyl)-6,7-dihydro-5H-pyrazolo[5,1-b][1,3]oxazine-3-carboxamide] | > 25000 | 87
C[C@H]1CCn2nc(-c3cnn(CC(F)(F)F)c3)c(C(=O)N[C@H]3N=C(c4ccccc4)c4cccc(F)c4NC3=O)c2O1 [Example 157, (5S)-N-[(3S)-9-fluoro-2-oxo-5-phenyl-1,3-dihydro-1,4-benzodiazepin-3-yl]-5-methyl-2-[1-(2,2,2-trifluoroethyl)pyrazol-4-yl]-6,7-dihydro-5H-pyrazolo[5,1-b][1,3]oxazine-3-carboxamide] | > 25000 | 48
COc1cc(-c2nn3c(c2C(=O)N[C@H]2N=C(c4ccccc4)c4cccc(F)c4NC2=O)O[C@H](C)CC3)ccn1 [Example 48, (5R)-2-(2-Methoxypyridin-4-yl)-5-methyl-N-[(3S)-9-fluoro-2-oxo-5-phenyl-1,3-dihydro-1,4-benzodiazepin-3-yl]-6,7-dihydro-5H-pyrazolo[5,1-b][1,3]oxazine-3-carboxamide] | > 25000 | 246
CCc1ccc(-c2nn3c(c2C(=O)N[C@H]2N=C(c4ccccc4)c4ccccc4NC2=O)O[C@H](C)CC3)c(F)c1 [Example 54] | > 25000 | 15
